≈ marks a conversion by molar mass, not a printed value.
What was measured:
[1] = test system: T. mentagrophytes, IFM59813; assay: Drug-sensitivity test, microdilution method, CLSI guidelines; type: cell-based, Trichophyton mentagrophytes
Method: (§1) The antimicrobial activity of therapeutic agents for treating dermatomycosis was evaluated and confirmed by performing a drug-sensitivity test with major pathogenic fungi in accordance with the CLSI (Clinical Laboratory Standards Institute, U.S.) guidelines. The pathogenic fungi selected were genus Trichophyton (T. rubrum, T. mentagrophytes), genus Microsporum (M. gypseum), genus Epidermophyton (E. floccosum), genus Candida (C. albicans), genus Aspergillus (A. fumigatus), and genus Cryptococcus (C. neoformans). The Examples show the test results. The antimicrobial activity of the compounds of the present invention (MIC, mg/ml) against T. mentagrophytes, which is a typical dermatophytic fungus, is as follows: tripotassium citrate 3.1; and trisodium citrate 6.3. A drug-sensitivity test with a fungus belonging to genus Malassezia (M. furfur) was also performed in accordance with the method of Sugita et al., which employs an agar dilution method (T. Sugita et al., J. Clinical Microbiology, 43, 2824-2829 (2005)). The antimicrobial activity against M. furfur (MIC, mg/ml) was as follows: tripotassium citrate 10.0.
In these drug-sensitivity tests, the medium contained Mg ions and Ca ions necessary for fungal conidia (spores) to germinate and grow. Because carboxyl groups of organic acids bind to these ions, organic acids have competitive inhibitory activity on fungal growth.
In the antimicrobial activity measurement method in accordance with the CLSI guidelines described above, an excessively large amount of magnesium ions and calcium ions is added to the RPMI-1640 medium for use. Thus, the trialkali metal salt of citric acid added to the test system binds completely to the excessively large amount of metal ions, resulting in an apparently large MIC value. For this reason, the ICP analytical method was performed to measure the content of magnesium ions and calcium ions in a test solution used as a blank test in this test system (a solution obtained by adding a solution containing spores of T. mentagrophytes to a RPMI-1640 medium solution, and performing a culture treatment) and to measure the content of magnesium ions and calcium ions in the original RPMI-1640 medium solution, thereby calculating the amount of alkali metal ions absorbed by the spores of T. mentagrophytes. The amount of the citric salt that can bind to all of the alkali metal ions absorbed by the spores is the substantial MIC value.
The antifungal activity of tripotassium citrate and trisodium citrate against a variety of pathogenic fungi was evaluated by performing a drug-sensitivity test. The test was performed using a microdilution method in accordance with the CLSI (Clinical Laboratory Standards Institute, U.S.) guidelines. […]

Candida krusei = conditions: Non-patent Literature 3; cited from earlier work
Aspergillus oryzae = conditions: Non-patent Literature 3; cited from earlier work
T. rubrum, IFM59814 = assay: Drug-sensitivity test, microdilution method, CLSI guidelines; type: cell-based, Trichophyton rubrum
Method: as §1, with “10.0. […]” for “10.0.”
(§2) The antifungal activity of tripotassium citrate and trisodium citrate against a variety of pathogenic fungi was evaluated by performing a drug-sensitivity test. […]

M. gypseum, IFM58916 = assay: as above; type: cell-based, Microsporum gypseum
Method: as §1, with “10.0. […]” for “10.0.”
as §2

E. floccosum, IFM53345 = assay: as above; type: cell-based, Epidermophyton floccosum
Method: as §1, with “10.0. […]” for “10.0.”
as §2

C. albicans, IFM5740 = assay: as above; type: cell-based, Candida albicans
Method: as §1, with “10.0. […]” for “10.0.”
as §2

A. fumigatus, IFM4942 = assay: as above; type: cell-based, Aspergillus fumigatus
Method: as §1, with “10.0. […]” for “10.0.”
as §2

C. neoformans, IFM5807 = assay: as above; type: cell-based, Cryptococcus neoformans
Method: as §1, with “10.0. […]” for “10.0.”
as §2

M. furfur = assay: Malassezia drug-sensitivity test, method of Sugita et al. (agar dilution); type: cell-based; conditions: mLNA medium, 32° C., 7 days
Method: as §1
The antimicrobial activity of tripotassium citrate against fungi belonging to genus Malassezia was evaluated by performing a drug-sensitivity test with human-related Malassezia species, in accordance with the method disclosed in Sugita et al. (2005). […]

[2] = test system: hyperkeratotic tinea (Trichophyton mentagrophytes isolated); assay: Human case, Example 3: external treatment of hyperkeratotic tinea; type: in vivo; conditions: 0.5% test solution in 20% ethanol, sprayed three times daily, after about 3 months
Method: (§3) The curative action of trialkali metal salts of citric acid on dermatomycosis was determined based on whether there was a therapeutic effect on human tinea. The cases of tinea used in the test include a variety of cases, such as vesicular tinea on the skin, interdigital tinea, hyperkeratotic tinea, tinea corporis, and tinea unguium. […] In these cases, no skin irritation due to the medicinal agents was confirmed. In many cases described in the Examples, Trichophyton fungus was isolated and identified as a pathogenic fungus; additionally, Example 10 describes a case in which Candida was isolated and identified, and Example 11 describes a case in which Aspergillus was isolated and identified.
20% ethanol was added to 5.3 g of tripotassium citrate monohydrate to give 1000 g, thereby preparing a 0.5% test solution. The 0.5% test solution was applied to hyperkeratotic tinea that extensively developed on the arch on the sole of a foot by spraying the solution three times daily. […] From the area affected by this tinea, Trichophyton mentagrophytes, which is one type of Trichophyton fungi, was isolated and confirmed.

vesicular tinea = assay: Human case, Example 4: external treatment of vesicular tinea; type: in vivo; conditions: 3% test solution, sprayed twice daily; symptom practically disappeared after about 1 month, treatment continued about 1 month more
Method: as §3
20 mL of glycerin (84-87% aqueous solution) was added to 63.6 g of tripotassium citrate monohydrate, and 15% ethanol was further added thereto to give 2 L, thereby preparing a 3% test solution. This 3% test solution was applied twice daily, by spraying the solution, to vesicular tinea that extensively developed on the arch of the left foot. After about 1 month, the skin symptom practically disappeared.

tinea corporis = assay: Human case, Example 5: external treatment of tinea corporis; type: in vivo; conditions: 3% test solution, sprayed twice daily, after about 2 months
Method: as §3
A 3% test solution of tripotassium citrate prepared in the same manner as in Example 4 was sprayed twice daily onto tinea corporis that extensively developed over the left part of the buttocks. […] Although light brown pigmentation developed on the healed skin, it faded away over time and became less prominent.

[3] = test system: thin hyperkeratotic tinea (Trichophyton rubrum isolated); assay: Human case, Example 6: external treatment of thin hyperkeratotic tinea; type: in vivo; conditions: 3% test solution, sprayed once daily, after about 1 month
Method: as §3
A 3% test solution prepared in the same manner as in Example 4 was sprayed once daily onto thin hyperkeratotic tinea that extensively developed over around the tip of the nails on the sole of both feet. […] From this affected area of the skin, Trichophyton rubrum was isolated and confirmed.

interdigital tinea = assay: Human case, Example 7: external treatment of interdigital tinea; type: in vivo; conditions: 3% test solution, sprayed once daily, after about 2 months
Method: as §3
A 3% test solution prepared in the same manner as in Example 4 was sprayed once daily onto interdigital tinea that extensively developed between the toes of the feet.

[4] = test system: tinea in four nails of the left foot; assay: Human case, Example 8: immersion treatment of toenail tinea; type: in vivo; conditions: entire foot immersed 1 hour daily in 3% test solution, after a half year
Method: as §3
In the case in which tinea developed in all four nails except the fourth nail of the left foot, the entire foot was immersed for 1 hour daily in a 3% test solution prepared in the same manner as in Example 4. Over the course of the treatment, new nails grew from the base of the nails.

[5] = test system: tinea of nail and surrounding skin (Trichophyton rubrum isolated); assay: Human case, Example 9: immersion treatment of fingernail tinea; type: in vivo; conditions: 5% test solution, finger immersed 5 hours once every 2 days, after 3 months
Method: as §3
20 mL of glycerin (84-87% aqueous solution) was added to 106 g of tripotassium citrate monohydrate, and 15% ethanol was further added thereto to give 2 L, thereby preparing a 5% test solution. About 2 mL of this test solution was placed into a commercially available fingerstall (size M). The middle finger of the right hand, which developed tinea on the right edge of the nail and the surrounding skin from the tip to the base of the nail, was immersed in the solution for 5 hours once every 2 days. […] From the nail specimen of this case, a Trichophyton fungus was isolated, and confirmed to be Trichophyton rubrum by gene analysis.

[6] = test system: tinea unguium (Clavispora lusitaniae isolated); assay: Human case, Example 10: external treatment of tinea unguium; type: in vivo; conditions: 5% solution, sprayed once daily, after one and a half months
Method: as §3
A 5% solution of tripotassium citrate prepared in the same manner as in Example 9 was sufficiently sprayed once daily on tinea unguium on the tip of the nail of the fourth finger of the right hand. […] From the nail specimen of this affected area, a Candida fungus was isolated and confirmed to be Clavispora lusitaniae (the teleomorph of Candida lusitaniae) by gene analysis.

[7] = test system: small red papules (Aspergillus tubingensis as the pathogen); assay: Human case, Example 11: external treatment of small red papules; type: in vivo; conditions: 5% solution, sprayed once daily, left chest
Method: as §3
A 5% solution of tripotassium citrate prepared in the same manner as in Example 9 was sprayed once daily on small red papules that developed on the left chest part. […] From the small red papules, a body fluid was collected, and the pathogen was cultured, followed by gene analysis, thereby confirming Aspergillus tubingensis as the pathogen.

tinea unguium = assay: Human case, Example 12: external treatment of tinea unguium; type: in vivo; conditions: 10% aqueous solution, sprayed once daily, after a half year
Method: as §3
A 10% aqueous solution of tripotassium citrate was prepared. This 10% test solution was sprayed once daily on the right thumbnail, the entirety of which had developed tinea unguium.

human tinea = assay: Curative action on human tinea, overall (Examples 3 to 13); type: in vivo; conditions: 5% solution applied; relapse of symptoms and pigmentation before the end result
Method: as §3
Applying a 5% tripotassium citrate solution on the small red papules on the body made the papules smooth, and relapse of symptoms was observed after every day, with development of pigmentation, and followed by complete cure; this phenomenon was observed quite frequently. The relapse of symptoms was caused by germination of spores, and tripotassium citrate appears to have induced the germination of spores. The biggest factor for the low likelihood of curing dermatomycosis is the presence of spores; even after a treatment with a medicinal agent, if spores remain, the spores germinate, enabling dermatomycosis to return. […]

small red papules = assay: Human case, Example 13: external treatment of small red papules; type: in vivo; conditions: 3% (also printed 5%) test solution, sprayed once daily, left thigh
Method: as §3
A 3% test solution of trisodium citrate was prepared in the same manner as in Example 4. This 5% test solution was sprayed once daily on small red papules that developed on the left thigh.

Candida albicans = conditions: Non-patent Literature 5; cited from earlier work

**Q.** For `C[C@@H]1[C@H](O)[C@@H](C)/C=C/C=C/C=C/C=C/C=C/C=C/C=C/[C@H](O[C@@H]2O[C@H](C)[C@@H](O)[C@H](N)[C@@H]2O)C[C@@H]2O[C@](O)(C[C@@H](O)C[C@@H](O)[C@H](O)CC[C@@H](O)C[C@@H](O)CC(=O)O[C@H]1C)C[C@H](O)[C@H]2C(=O)O` [amphotericin B, reference compound], which MIC [1] is on record?
**A.** The MIC was 2000 µg/mL (≈ 2160 µM).

**Q.** What does the source list for `O=C(O)CC(O)(CC(=O)O)C(=O)O` [citric acid, reference compound]?
**A.** antimicrobial activity (Candida krusei): did not exhibit antimicrobial activity; antimicrobial activity (Aspergillus oryzae): did not exhibit antimicrobial activity

**Q.** For `O=C([O-])CC(O)(CC(=O)[O-])C(=O)[O-].[K+].[K+].[K+]` [tripotassium citrate], which MIC (T. rubrum, IFM59814) is on record?
**A.** Its MIC is 12500 µg/mL.

**Q.** And the MIC [1]?
**A.** The MIC was 3100 µg/mL.

**Q.** What about the “corrected MIC value” ([1]; corrected for the metal ions absorbed by spores (ICP analysis)) of the same molecule?
**A.** Its value is 54 µg/mL.

**Q.** What about the MIC (M. gypseum, IFM58916) of the same molecule?
**A.** Its MIC is 12500 µg/mL.

**Q.** What about the MIC (E. floccosum, IFM53345) of the same molecule?
**A.** The MIC was 1600 µg/mL.

**Q.** And the MIC (C. albicans, IFM5740)?
**A.** The MIC was 25000 µg/mL.

**Q.** And the MIC (A. fumigatus, IFM4942)?
**A.** Its MIC is 6300 µg/mL.

**Q.** What about the MIC (C. neoformans, IFM5807) of the same molecule?
**A.** Its MIC is 390 µg/mL.

**Q.** What about the MIC (M. furfur) of the same molecule?
**A.** Its MIC is 10000 µg/mL.

**Q.** What about the “curative effect on hyperkeratotic tinea” value [2] of the same molecule?
**A.** The value was “hyperkeratotic tinea disappeared, and clean skin grew back”.

**Q.** And the “curative effect on vesicular tinea” value (vesicular tinea)?
**A.** Its value is “this tinea was cured”.

**Q.** What about the “curative effect on tinea corporis” value (tinea corporis) of the same molecule?
**A.** Its value is “tinea corporis disappeared, and healthy skin grew back”.

**Q.** And the “curative effect on thin hyperkeratotic tinea” value [3]?
**A.** The value was “pink-color, healthy skin grew back”.

**Q.** And the “curative effect on interdigital tinea” value (interdigital tinea)?
**A.** The value was “the skin symptom disappeared, and healthy skin grew back”.

**Q.** And the “curative effect on nail tinea (foot)” value [4]?
**A.** Its value is “tinea in all of the nails was fully cured”.

**Q.** And the “curative effect on tinea of fingernail and surrounding skin” value [5]?
**A.** The value was “a healthy nail and skin grew back”.

**Q.** And the “curative effect on tinea unguium (Candida)” value [6]?
**A.** The value was “tinea unguium was cured”.

**Q.** What about the “effect on small red papules (Aspergillus)” value [7] of the same molecule?
**A.** The value was “immediately shrank, and after one week, pigmentation and cicatrization occurred”.

**Q.** And the “curative effect on tinea unguium” value (tinea unguium)?
**A.** Its value is “a healthy nail returned”.

**Q.** And the “effect on small red papules on the body” value (human tinea)?
**A.** The value was “complete cure”.

**Q.** For `O=C([O-])CC(O)(CC(=O)[O-])C(=O)[O-].[Na+].[Na+].[Na+]` [trisodium citrate], which MIC [1] is on record?
**A.** Its MIC is 6300 µg/mL.

**Q.** What about the “effect on small red papules” value (small red papules) of the same molecule?
**A.** The value was “immediately shrank, and after 2 weeks, cicatrization and pigmentation occurred”.

**Q.** And the antimicrobial activity (Candida krusei)?
**A.** Its antimicrobial activity is “did not exhibit antimicrobial activity”.

**Q.** What about the antimicrobial activity (Aspergillus oryzae) of the same molecule?
**A.** Its antimicrobial activity is “did not exhibit antimicrobial activity”.

**Q.** What about the antimicrobial activity (Candida albicans) of the same molecule?
**A.** Its antimicrobial activity is “exhibited antimicrobial activity”.

Source: patent US11083701B2, “Dermatomycosis treatment agent” (priority 2015, dated 2021)
